Measurements from PubChem BioAssay AID504568 (NMMLSC, 2011).
Activity calls are given as the source filed them.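 How the source made its calls: active means binding readouts below 60% of the midpoint between blocked and unblocked controls, with summed weighted score above 1; inactive means the rest.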

System: 2C TCR mouse CD8+ T cells, vesicle binding, flow cytometry
Assay: inhibitors of CD8+ T cell LFA-1/ICAM-1 adhesion – powder samples, single concentration, mouse 2C TCR, flow cytometry, confirmation (AID 504568);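 further: lower values mean less vesicle binding and point to an inhibitor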;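 on double-positive events (T cell-vesicle binding): the gate for binding is set so anti-LFA-1 blocked control wells show 10% double positives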
Details: stronger effect = lower value; for mean fluorescence percent response: measured here: CD8+ cell vesicle fluorescence mean

Q: Which results are given for `Cc1cc(Cl)c(OCCCSc2nc(C)cc(=O)[nH]2)c(Br)c1`?
A: double-positive events (T cell-vesicle binding): 25%; mean fluorescence percent response: 126%

Q: Which results are given for `CCCCn1nc(C(=O)N2CCN(S(=O)(=O)c3ccccc3)CC2)c2ccccc2c1=O`?
A: double-positive events (T cell-vesicle binding): 28.1% (inactive); mean fluorescence percent response: 145%

Q: How did the double-positive events (T cell-vesicle binding) turn out when `CCC1(C)NC(=O)N(CC(=O)N2N=C(c3ccccc3)CC2c2ccc(OC)cc2)C1=O` (configuration not stated) was run?
A: 24% (inactive)

Q: And the mean fluorescence percent response?
A: 144%

Q: Which results are given for `COc1ccc(CNC(=O)c2cccnc2SC)cc1OC`?
A: double-positive events (T cell-vesicle binding): 26.7% (inactive); mean fluorescence percent response: 163%

Q: For `CN1CCN(S(=O)(=O)c2ccc(C(=O)Nc3ccccc3)cc2)CC1`, which double-positive events (T cell-vesicle binding) is on record?
A: 26.1% (inactive)

Q: And the mean fluorescence percent response?
A: 138%

Q: What does the source list for `COc1ccccc1CNC(=O)COc1ccc(C)cc1`?
A: double-positive events (T cell-vesicle binding): 24.8% (inactive); mean fluorescence percent response: 173%

Q: What does the source list for `COc1ccc(C(O)c2coc3ccc(O)c(CN(C)C)c23)cc1` (configuration not stated)?
A: double-positive events (T cell-vesicle binding): 21.7% (inactive); mean fluorescence percent response: 162%

Q: What does the source list for `CCN(CC)S(=O)(=O)c1ccc(Cl)c(NC(=O)COC(=O)C2CCCCC2)c1`?
A: double-positive events (T cell-vesicle binding): 14.5%; mean fluorescence percent response: 126%

Q: For `NC(=O)C1CCN(c2nc(-c3cc4ccccc4o3)cs2)CC1`, which double-positive events (T cell-vesicle binding) is on record?
A: 26.2% (inactive)

Q: And the mean fluorescence percent response?
A: 140%

Q: For `Cc1ccc(NC(=O)COC(=O)CCc2c[nH]c3ccccc23)c(C)c1`, which double-positive events (T cell-vesicle binding) is on record?
A: 25.1%

Q: What about the mean fluorescence percent response of the same compound?
A: 147%

Q: What does the source list for `O=C(COC(=O)C12CC3CC(CC(Br)(C3)C1)C2)Nc1cccc(S(=O)(=O)N2CCOCC2)c1`?
A: double-positive events (T cell-vesicle binding): 13.9%; mean fluorescence percent response: 91.1%
